Source: PubChem BioAssay (NCI)
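These data come from cells grown in 96-well plates and exposed to compound for 48 hours at five concentrations. TGI: concentration producing complete growth inhibition.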

What was measured:
Test in all cases: inhibition of tumour cell growth, NCI panel, 48 h
PC-3 prostate = test system: PC-3 prostate
ACHN renal = test system: ACHN renal
DU-145 prostate = test system: DU-145 prostate
SNB-75 CNS = test system: SNB-75 CNS
UACC-257 melanoma = test system: UACC-257 melanoma
OVCAR-4 ovarian = test system: OVCAR-4 ovarian
SK-OV-3 ovarian = test system: SK-OV-3 ovarian
KM12 colon = test system: KM12 colon
SK-MEL-5 melanoma = test system: SK-MEL-5 melanoma
SW-620 colon = test system: SW-620 colon
HOP-62 NSCLC = test system: HOP-62 NSCLC
A498 renal = test system: A498 renal
HL-60(TB) leukemia = test system: HL-60(TB) leukemia
SF-539 CNS = test system: SF-539 CNS
HS 578T breast = test system: HS 578T breast
NCI-H23 lung = test system: NCI-H23 lung
MDA-MB-435 = test system: MDA-MB-435
UACC-62 melanoma = test system: UACC-62 melanoma
RXF 393 renal = test system: RXF 393 renal
SK-MEL-28 melanoma = test system: SK-MEL-28 melanoma
HOP-92 NSCLC = test system: HOP-92 NSCLC
OVCAR-3 ovarian = test system: OVCAR-3 ovarian
A549 NSCLC = test system: A549 NSCLC
EKVX NSCLC = test system: EKVX NSCLC
MALME-3M melanoma = test system: MALME-3M melanoma
U251 CNS = test system: U251 CNS
HCT-15 colon = test system: HCT-15 colon
NCI-H522 lung = test system: NCI-H522 lung
SF-295 CNS = test system: SF-295 CNS
T-47D breast = test system: T-47D breast
NCI-H460 lung = test system: NCI-H460 lung
OVCAR-5 ovarian = test system: OVCAR-5 ovarian
LOX IMVI melanoma = test system: LOX IMVI melanoma
TK-10 renal = test system: TK-10 renal
SNB-19 CNS = test system: SNB-19 CNS
MDA-MB-231 breast = test system: MDA-MB-231 breast
NCI-H226 lung = test system: NCI-H226 lung
NCI/ADR-RES ovarian = test system: NCI/ADR-RES ovarian
RPMI-8226 leukemia = test system: RPMI-8226 leukemia
IGROV1 ovarian = test system: IGROV1 ovarian
SF-268 CNS = test system: SF-268 CNS
MDA-N = test system: MDA-N
COLO 205 colon = test system: COLO 205 colon
UO-31 renal = test system: UO-31 renal
786-0 renal = test system: 786-0 renal
SK-MEL-2 melanoma = test system: SK-MEL-2 melanoma
K-562 leukemia = test system: K-562 leukemia
SN12C renal = test system: SN12C renal
HCT-116 colon = test system: HCT-116 colon
MOLT-4 leukemia = test system: MOLT-4 leukemia
MCF7 breast = test system: MCF7 breast
M14 melanoma = test system: M14 melanoma
CAKI-1 renal = test system: CAKI-1 renal
HT29 colon = test system: HT29 colon
CCRF-CEM leukemia = test system: CCRF-CEM leukemia
HCC-2998 colon = test system: HCC-2998 colon
SR leukemia = test system: SR leukemia
BT-549 breast = test system: BT-549 breast

## CO/N=C(/C(=O)OC)c1ccccc1COc1cccc(C(F)(F)F)c1
PC-3 prostate
  TGI: > 100 µM
ACHN renal
  TGI: > 100 µM
DU-145 prostate
  TGI: > 100 µM
SNB-75 CNS
  TGI: > 100 µM
UACC-257 melanoma
  TGI: 52.6 µM
OVCAR-4 ovarian
  TGI: > 100 µM
SK-OV-3 ovarian
  TGI: > 100 µM
KM12 colon
  TGI: 92 µM
SK-MEL-5 melanoma
  TGI: 17.9 µM
SW-620 colon
  TGI: > 100 µM
HOP-62 NSCLC
  TGI: > 100 µM
A498 renal
  TGI: > 100 µM
HL-60(TB) leukemia
  TGI: 49 µM
SF-539 CNS
  TGI: > 100 µM
HS 578T breast
  TGI: > 100 µM
NCI-H23 lung
  TGI: > 100 µM
MDA-MB-435
  TGI: > 100 µM
UACC-62 melanoma
  TGI: > 100 µM
RXF 393 renal
  TGI: 98 µM
SK-MEL-28 melanoma
  TGI: > 100 µM
HOP-92 NSCLC
  TGI: > 100 µM
OVCAR-3 ovarian
  TGI: 93.7 µM
A549 NSCLC
  TGI: > 100 µM
EKVX NSCLC
  TGI: 43.2 µM
MALME-3M melanoma
  TGI: 46.1 µM
U251 CNS
  TGI: > 100 µM
HCT-15 colon
  TGI: > 100 µM
NCI-H522 lung
  TGI: 70.2 µM
SF-295 CNS
  TGI: > 100 µM
T-47D breast
  TGI: 64.7 µM
NCI-H460 lung
  TGI: > 100 µM
OVCAR-5 ovarian
  TGI: > 100 µM
LOX IMVI melanoma
  TGI: > 100 µM
TK-10 renal
  TGI: 55.4 µM
SNB-19 CNS
  TGI: > 100 µM
MDA-MB-231 breast
  TGI: > 100 µM
NCI-H226 lung
  TGI: > 100 µM
NCI/ADR-RES ovarian
  TGI: > 100 µM
RPMI-8226 leukemia
  TGI: 25.4 µM
IGROV1 ovarian
  TGI: > 100 µM
SF-268 CNS
  TGI: > 100 µM
MDA-N
  TGI: > 100 µM
COLO 205 colon
  TGI: > 100 µM
UO-31 renal
  TGI: > 100 µM
786-0 renal
  TGI: > 100 µM
SK-MEL-2 melanoma
  TGI: > 100 µM
K-562 leukemia
  TGI: > 100 µM
SN12C renal
  TGI: > 100 µM
HCT-116 colon
  TGI: > 100 µM
MOLT-4 leukemia
  TGI: 34.4 µM
MCF7 breast
  TGI: 85.1 µM
M14 melanoma
  TGI: > 100 µM
CAKI-1 renal
  TGI: 56.1 µM
HT29 colon
  TGI: > 100 µM
CCRF-CEM leukemia
  TGI: 65.1 µM

## Clc1ccccc1-c1nnc2c(-c3ccccc3)nc3ccccc3n12
PC-3 prostate
  TGI: > 100 µM
ACHN renal
  TGI: > 100 µM
DU-145 prostate
  TGI: > 100 µM
UACC-257 melanoma
  TGI: > 100 µM
OVCAR-4 ovarian
  TGI: > 100 µM
SK-OV-3 ovarian
  TGI: > 100 µM
KM12 colon
  TGI: > 100 µM
SK-MEL-5 melanoma
  TGI: > 100 µM
SW-620 colon
  TGI: > 100 µM
HOP-62 NSCLC
  TGI: > 100 µM
A498 renal
  TGI: > 100 µM
HL-60(TB) leukemia
  TGI: > 100 µM
SF-539 CNS
  TGI: > 100 µM
NCI-H23 lung
  TGI: > 100 µM
MDA-MB-435
  TGI: > 100 µM
HCC-2998 colon
  TGI: > 100 µM
UACC-62 melanoma
  TGI: > 100 µM
RXF 393 renal
  TGI: > 100 µM
SK-MEL-28 melanoma
  TGI: > 100 µM
HOP-92 NSCLC
  TGI: > 100 µM
OVCAR-3 ovarian
  TGI: > 100 µM
A549 NSCLC
  TGI: > 100 µM
EKVX NSCLC
  TGI: > 100 µM
MALME-3M melanoma
  TGI: > 100 µM
U251 CNS
  TGI: > 100 µM
HCT-15 colon
  TGI: > 100 µM
T-47D breast
  TGI: 69.2 µM
NCI-H460 lung
  TGI: > 100 µM
OVCAR-5 ovarian
  TGI: > 100 µM
LOX IMVI melanoma
  TGI: > 100 µM
TK-10 renal
  TGI: > 100 µM
SNB-19 CNS
  TGI: > 100 µM
MDA-MB-231 breast
  TGI: > 100 µM
NCI-H226 lung
  TGI: > 100 µM
SR leukemia
  TGI: > 100 µM
NCI/ADR-RES ovarian
  TGI: > 100 µM
RPMI-8226 leukemia
  TGI: > 100 µM
IGROV1 ovarian
  TGI: > 100 µM
SF-268 CNS
  TGI: > 100 µM
MDA-N
  TGI: > 100 µM
BT-549 breast
  TGI: > 100 µM
COLO 205 colon
  TGI: > 100 µM
786-0 renal
  TGI: > 100 µM
SK-MEL-2 melanoma
  TGI: > 100 µM
K-562 leukemia
  TGI: > 100 µM
SN12C renal
  TGI: > 100 µM
HCT-116 colon
  TGI: > 100 µM
MOLT-4 leukemia
  TGI: > 100 µM
MCF7 breast
  TGI: > 100 µM
M14 melanoma
  TGI: > 100 µM
HT29 colon
  TGI: > 100 µM
CCRF-CEM leukemia
  TGI: 83.2 µM
